Results from patent publication US5866087A, “Calixarene derivatives, their preparation process and their use for extracting actinides and lanthanides” (priority 1995, dated 1999).

Columns and labels:
[1] = supported liquid membrane transport into aqueous reextraction solution; assay type: physicochemical; conditions: for Percentage transported in 6 h. 237 Np / Percentage transported in 6 h. 239 Pu / Percentage transported in 6 h. 241 Am / Percentage of 239Pu transported in 24 h / Percentage transported in 24 h. 237 Np / Percentage transported in 24 h. 241 Am: supported liquid membrane, 0.001 or 0.0001M calixarene (CMPO 10^-2 M); for Permeability (cm/h) 237 Np / Permeability (cm/h) 239 Pu / Permeability (cm/h) 241 Am: CELGARD 2500 membrane, nitrophenylhexyl ether with 0.001 or 0.0001M calixarene (CMPO 10^-2 M), reextraction 1 mole/l methylene diphosphonic acid
Text: These examples use the second embodiment of the process according to the invention for extracting europium, neptunium, plutonium and americium from aqueous solutions having the same compositions as those used in examples 7 to 16. These examples use the device shown in the attached drawing.
This device comprises an enclosure 1 subdivided into two compartents 3 and 5 by a supported liquid membrane 7, constituted by a microporous polypropylene membrane marketed under the name CELGARD 2500 and having the following characteristics:
membrane thickness: 0.025 mm.
The pores of this membrane are filled with an organic phase constituted by nitrophenylhexyl ether incorporating 0.001 or 0.0001M of calixarene.
Compartment 3 contains 50 ml of aqueous solution (NaNO3 :4 mole/l, HNO3 : 1mole/l with Eu, Np, Pu, Am); and compartment 5 contains 50ml of an aqueous reextraction solution constituted by an aqueous solution with 1 mole/l of methylene diphosphonic acid.
The two solutions are stirred and the initial activity of the solution of compartment 3 is determined, followed by the activity of the aqueous reextraction solution of compartment 5 by liquid α spectrometry and the operation is continued for one day. From it is deduced the percentage of neptunium, plutonium, americium and europium recovered in the aqueous reextraction solution after 6 and 24 h.
The calixarenes used, the permeability (in cm h^-1) of the membrane to Np and Pu, as well as the %, at the end of 6 and 24 h,of Eu, Am, Np and Pu recovered are given in table 3.

[2] = liquid-liquid extraction from aqueous nitric solution, distribution coefficient D; assay type: physicochemical; conditions: aqueous HNO3, NaNO3 4 mole/l; for D(distribution coefficient) 152-Eu: pH ≈0, 1 hour contacting; for D(distribution coefficient) 237-Np / D(distribution coefficient) 239-Pu / D(distribution coefficient) 241-Am: 1 hour, * = precipitation
Description: In these examples, an evaluation takes place of the effectiveness of the calixarenes of table 1 for extracting plutonium, neptunium and americium, as well as europium (simulating all the trivalent lanthanides) of an aqueous solution containing one of these elements. The composition of the aqueous solution is as follows:
[…] Contacting takes place in a 20 ml polypropylene tube, which undergoes stirring. After 1 hour of contacting, the two phases are allowed to settle and the activity of each phase is counted by liquid scintillation or α and γ spectrometries.
The distribution coefficient D is then determined and this corresponds to the ratio of the activity of actinide in the organic phase to the activity of actinide in the aqueous phase.

[3] = calixarene 0.001M in nitrophenyloctylether
[4] = calixarene 0.0001M in nitrophenyloctylether

Row | Structure (SMILES) | Percentage transported in 6 h. 237 Np [1] [%] | Percentage transported in 6 h. 239 Pu [1] [%] | Percentage transported in 6 h. 241 Am [1] [%] | Percentage of 239Pu transported in 24 h [1] [%] | Percentage transported in 24 h. 237 Np [1] [%] | Percentage transported in 24 h. 241 Am [1] [%] | Permeability (cm/h) 237 Np [1] [cm/h] | Permeability (cm/h) 239 Pu [1] [cm/h] | Permeability (cm/h) 241 Am [1] [cm/h] | D(distribution coefficient) 152-Eu [2, 3] | D(distribution coefficient) 237-Np [2, 3] | D(distribution coefficient) 239-Pu [2, 3] | D(distribution coefficient) 241-Am [2, 3] | D(distribution coefficient) 237-Np [2, 4] | D(distribution coefficient) 239-Pu [2, 4] | D(distribution coefficient) 241-Am [2, 4]
1 | CCCCCCCCCCOc1c2cc(NC(=O)CP(=O)(c3ccccc3)c3ccccc3)cc1Cc1cc(NC(=O)CP(=O)(c3ccccc3)c3ccccc3)cc(c1OC)Cc1cc(NC(=O)CP(=O)(c3ccccc3)c3ccccc3)cc(c1OCCCCCCCCCC)Cc1cc(NC(=O)CP(=O)(c3ccccc3)c3ccccc3)cc(c1OC)C2 [Compound 6, 25, 27 didecyloxy-26,28-dimethoxy-5,11, 17,23-(diphenylphosphinoxido-acetamido) calix[4]arene] | 49.4 | 97.1 | 94.2 | 100 | 68.3 | 94.9 | 1.6 | 6.4 | 2.9 | > 100 | 3 | 130 | 240 | – | – | –
2 | CCCCCCCCCCCCCCCCOc1c2cc(NC(=O)CP(=O)(c3ccccc3)c3ccccc3)cc1Cc1cc(NC(=O)CP(=O)(c3ccccc3)c3ccccc3)cc(c1OCCCCCCCCCCCCCCCC)Cc1cc(NC(=O)CP(=O)(c3ccccc3)c3ccccc3)cc(c1OCCCCCCCCCCCCCCCC)Cc1cc(NC(=O)CP(=O)(c3ccccc3)c3ccccc3)cc(c1OCCCCCCCCCCCCCCCC)C2 [Compound 4, tetra-O-hexadecyl tetrakis(diphenyl-phosphinaxidoacetamido)calix[4]arene] | 21 | 54 | 3 | – | – | – | 0.46 | 1.4 | 0.08 | – | – | – | – | 1.1 | 27 | 27
3 | CCCCCCCCCCCCCCCCCCOc1c2cc(NC(=O)CP(=O)(c3ccccc3)c3ccccc3)cc1Cc1cc(NC(=O)CP(=O)(c3ccccc3)c3ccccc3)cc(c1OC)Cc1cc(NC(=O)CP(=O)(c3ccccc3)c3ccccc3)cc(c1OCCCCCCCCCCCCCCCCCC)Cc1cc(NC(=O)CP(=O)(c3ccccc3)c3ccccc3)cc(c1OC)C2 [Compound 7] | 42.7 | 99.7 | 92.6 | 100 | 59.4 | 99.3 | 1.3 | 7 | 3.2 | > 100 | 3 | 170 | 250 | – | – | –
